The text below walks through data of patent US20040266805A1, “Inflammation modulatory compound” (priority 2001, published 2004).

Test [1] deals with Splenocytes and thymocytes. In words: Apoptosis by Annexin-V staining and flow cytometry. It counts as cell-based, rat. The following applies: for Effect on apoptosis in cells following any of the culture periods: culture 6, 24, 48 or 72 h; for Effect on ConA-induced apoptosis in thymocytes: morphine 10^−8 to 10^−18 mol/l; for Effect on apoptosis in basal non-activated splenocytes and thymocytes: pre-incubation 1 h, basal apoptosis 4-8%. Here is the method: Splenocytes and thymocytes obtained from adult male Wistar rats were cultured as previously described (10). Cells were incubated with EM-1, EM-2 or morphine at various concentrations for 1 h and were then activated with either Concanavalin A (ConA, 5 μg/ml, Sigma UK) or lipopolysaccharide (LPS, 25 μg/ml, Sigma, UK) and cultured for 6, 24, 48 or 72 h. After culture, cells were stained with Annexin-V-Fluos (Roche, Mannheim, Germany) and analysed by flow cytometry (Becton Dickinson, UK). Apoptosis in basal non-activated splenocytes and thymocytes was 4-8%, and pre-incubation with EM-1, EM-2 or morphine had no effect on this. ConA at 1 or 5 μg/ml induced 10-15 and 20-30% apoptosis respectively in rat splenocytes, values which were not altered by pre-incubation with EM-2 at concentrations of 10^−8 to 10^−18 mol/l. […] No effect of morphine, EM-1 or EM-2 was observed on apoptosis in cells following any of the culture periods.

Test [2] deals with rat Fas in splenocytes and thymocytes. In words: Fas expression by antibody staining and flow cytometry. The following applies: basal or ConA activated splenocytes and thymocytes, cultured 6 h. It is filed as cell-based. Here is the method: Splenocytes and thymocytes, whether basal or ConA activated, were cultured for 6h in the presence of EM-1, EM-2 or morphine (concentration ranges as above) and were then stained with an antibody specific for rat Fas (Transduction Laboratories, Lexington, Ky., USA) and analysed by flow cytometry.

Test [3] deals with Adjuvant arthritis (AA) in adult male Lewis rats. In words: Intraperitoneal treatment of existing inflammation with endomorphin in adjuvant arthritis rats. It counts as in vivo, rat. On the procedure: (§1) Adjuvant arthritis (AA) was induced in adult male Wistar rats by a single intradermal injection (0.1 ml) of a suspension of ground, heat-killed M. butyricum in paraffin oil (10 mg/ml) into the tail base (9). Rats were despatched 14 days following injection and spleens, thymuses and hind paws were collected on dry ice and stored at −80° C. Spleens, thymuses and synovial tissue from the paws were acid-extracted and the extracts were measured for the presence of EM-1 and EM-2 by RIAs (8). EM-1 contents in the spleen (p<0.05) and thymus (p<0.075) were elevated compared to tissues from non-AA controls (FIG. 4). […] Neither EM-1 or EM-2 were detectable in extracts of synovial tissues from control non-AA rats (FIG. 5).
Adjuvant arthritis (AA) was induced in adult male Lewis rats as above. Saline vehicle or 1 μmol of endomorphin in saline was given as an intraperitoneal (ip) injection on days 11, 12 and 13 after adjuvant injection, and after the onset of inflammation, to assess the modulation effect of the endomorphin.

Test [4] concerns Adjuvant arthritis (AA) in adult male Wistar rats. In words: Intraplantar treatment with endomorphin 1 prior to onset of inflammation in adjuvant arthritis rats. It is filed as in vivo, rat. The following applies: for Mean Paw Volume: days 9-13, day 14, vehicle 2.924. Here is the method: as §1
(§2) Adjuvant arthritis (AA) was induced in adult male Wistar rats using the same protocol as described in Example 2 with saline vehicle or endomorphin 1 in saline being injected on days 9, 10, 11, 12 and 13 after adjuvant injection and prior to the onset of inflammation.

The test system of test [5] is arthritic male Wistar rats. In words: Intraperitoneal administration of EM-1 prior to onset of inflammation in arthritic rats. It is filed as in vivo, rat. Details: Mean Paw Volume: unit not given beside the values. The following applies: for Mean Paw Volume: n=7. Here is the method: as §2
The protocol of Example 3 above was followed using intraperitoneal injection of 0.1 and 1.0 μmol Endomorphin-1 or vehicle in arthritic male Wistar rats prior to the onset of inflammation.
EM-1 or vehicle was administered on days 9, 10, 11, 12 and 13.

Where “and” joins values, the source holds several entries; their conditions need not be identical. Identical values can stand only once.

For the compound `CN1CC[C@]23c4c5ccc(O)c4O[C@H]2[C@@H](O)C=C[C@H]3[C@H]1C5` [morphine, reference compound], in test [1], the “Effect on apoptosis in cells following any of the culture periods” value (“Effect on apoptosis … of the culture periods” below) is recorded as “No effect”; the “Effect on ConA-induced apoptosis in thymocytes” value (from here on “Effect … in thymocytes”) was “Neither EM-1, EM-2 nor morphine (concentration range of morphine 10^−8 to 10^−18 mol/l) had any effect”; the “Effect on apoptosis in basal non-activated splenocytes and thymocytes” value is reported as “had no effect”. Moreover, the “Alteration in expression of Fas” value in test [2] is on record as “No alteration”.
For the compound endomorphin-1 [EM-1], in test [3] (dose of 1 μmol ip), the “Effect on existing inflammation” value is “reduce existing inflammation”. For the same compound, in test [3] (individual rats, 1 μmol ip on days 11, 12 and 13 after adjuvant, after onset of inflammation, day 14, listed as Endomorphin (EM-1)), the “Paw Volume” value is 3.15 ml and 3.04 ml and 2.57 ml (2×) and 2.41 ml and 2.81 ml and 2.35 ml and 2.61 ml. For the same compound, the “Paw Volume, mean” value in test [3] (n=8, SEM=0.10, 1 μmol ip on days 11, 12 and 13, day 14, vehicle mean 2.96) came out at 2.69 mL. Besides, the “Mean Paw Volume” value in test [4] (10 pmol intraplantar, n=14) is 2.779 mL; in test [4] (100 pmol intraplantar, n=14), 2.381 mL; in test [4] (1 nmol intraplantar, n=12), 2.638 mL; in test [4] (10 nmol intraplantar, n=14), 2.260 mL; in test [4] (100 fmol intraplantar, n=14), 2.450 mL; in test [5] (0.1 μmol ip group, Day 0 (before treatment on days 9-13)), 1.613. The “Mean Paw Volume” value was 2.494 in test [5] (0.1 μmol ip on days 9-13, Day 14, vehicle 2.927); 1.723 in test [5] (1.0 μmol ip group, Day 0 (before treatment on days 9-13)); 2.349 in test [5] (1.0 μmol ip on days 9-13, Day 14, vehicle 2.927). In addition, the “Reduction of inflammation (decrease in paw volume compared to the vehicle group)” value in test [4] (intraplantar injection, 100 fmols) is on record as at most 16%. In test [5] (1 μmol ip, prophylactically), this compound gave a Reduction in inflammation of 20%. The “Effect on apoptosis … of the culture periods” value in test [1] is “No effect”. Also, the “Effect … in thymocytes” value in test [1] is recorded as “Neither EM-1, EM-2 nor morphine (concentration range of morphine 10^−8 to 10^−18 mol/l) had any effect”. Also, the “Effect on apoptosis in basal non-activated splenocytes and thymocytes” value in test [1] is listed as “had no effect”. The “Alteration in expression of Fas” value in test [2] is “No alteration”.
endomorphin-2 [EM-2]: the “Effect on ConA-induced apoptosis in rat splenocytes” value in test [1] (ConA 1 or 5 μg/ml, pre-incubation at 10^−8 to 10^−18 mol/l) is on record as “not altered”. Further, the “Effect on LPS-induced apoptosis” value in test [1] (LPS 5 and 25 μg/ml, 10-12% apoptosis) is “did not alter”. Also, in test [1], the “Effect on apoptosis … of the culture periods” value is reported as “No effect”; the “Effect … in thymocytes” value is on record as “Neither EM-1, EM-2 nor morphine (concentration range of morphine 10^−8 to 10^−18 mol/l) had any effect”; the “Effect on apoptosis in basal non-activated splenocytes and thymocytes” value is “had no effect”. For the same compound, the “Alteration in expression of Fas” value in test [2] is on record as “No alteration”.
